Test results from patent publication US20250306007A1, “DETECTING APOPTOTIC BODIES BY IMPEDANCE CYTOMETRY AS AN INDICATOR OF DRUG SENSITIVITY” (University of Virginia Patent Foundation, priority 2022, published 2025).

Experiments:
[1] = system: highly tumorigenic cells derived from the xenograft 122 (patient-derived tumor cells); assay: cell proliferation assays comparing phenotypes over drug concentration ranges; type: cell-based
Source text: FIG. 1B is a schematic example of a progression of drug resistance onset of in vitro cancer cells. In an example, a tumor tissue sample 120 can be collected from a cancer patient 118 such as via surgical resection or biopsy. Cells from the tumor tissue sample 120 can be propagated, e.g., within immunocompromised mice as a xenograft 122. […] Once propagated, the line established from the xenograft 122 can be maintained in culture for treatment from a chemotherapeutic drug 124, such as gemcitabine, a fluorouracil, doxorubicin, or any other drug used in the treatment of cancer. In an example involving gemcitabine treatment on highly tumorigenic cells derived from the xenograft 122, the range of gemcitabine levels that lead to drug sensitivity can be assessed by cell proliferation assays 126. Depending on the drug treatment, the in vitro cancer cells can be drug resistant, e.g., with varying degrees of resistance to one or more drugs. The CAFs can also be further propagated in vitro and subjected to additional drug treatment(s) to further examine the drug resistance of the cancer cells. […] These structures can be associated with apoptosis-induced cell disassembly, which generates ABs of particular composition and structure. These phenotypes can be used as a model to help identify and stratify ABs in subsequent patient-derived tumor cells using impedance cytometry techniques based on comparison of their single-particle sensitivity levels.

[2] = system: cancer cells lifted from the culture (gemcitabine-treated pancreatic tumor cultures); assay: impedance cytometry of cancer cell samples exposed to chemotherapeutic drug; type: cell-based; conditions: about 48 hours, FIG. 2A/2B
Source text: Individual cells from the biological sample or culture 102 can flow (e.g., propelled via a focusing flow channel of the impedance cytometry device 104) through the main channel 114 of the test cell 106 at a specified throughput (e.g., within a range of about 200 cells/s to about 500 cells/s) past electrodes or microelectrodes under an AC electric field applied over a specified range of frequencies (e.g., within a range between about 0.5 megahertz (MHz) to 50 MHz). In an example, an impedance of respective detected specimen can be measured by the measurement circuitry 108 concurrently or simultaneously using a plurality of discrete frequencies, e.g., a reference frequency within a range of about 15 MHz and about 20 MHz, and one or more analysis frequencies within a specified analysis frequency range. […] The electrophysiology of the cancer cells lifted from the culture after various gemcitabine treatment conditions can be measured by impedance cytometry to determine impedance magnitude (|Z|) and impedance phase (ϕZ) at a low (0.5 MHz) and a high frequency (18 MHz) for analyzing individual cellular 204 and/or sub-cellular 202 events. […] At a specified threshold frequency (e.g., at about 18 MHz), the impedance signal can be effectively determined by the dielectric properties of the cell interior, rather than properties the cell exterior. […]

Nc1ccn([C@@H]2O[C@H](CO)[C@@H](O)C2(F)F)c(=O)n1 [chemotherapeutic drug 124, gemcitabine] was tested, and the “phenotype (apoptosis-induced cell disassembly structures)” value (shortened to “phenotype”) ([1]; at about 0.01 μg mL^−1) was “generation of blebs of varying size on the plasma membrane”, the “phenotype” value ([1]; at about 0.1 μg mL^−1) was “presence of large protrusions” and the “phenotype” value ([1]; at about 1 μg mL^−1) was “emergence of beaded structures”. For the same compound, the “sub-cellular events (release of ABs)” value ([2]; increasing drug concentration 0.01, 0.1, 1 μg mL^−1 vs untreated) was “rise in sub-cellular events 202” and the “impedance phase at 18 MHz (ϕZ18 MHz), cellular and sub-cellular populations” value ([2]; increasing drug concentration) was “downward shift in ϕZ18 MHz”.
